These results are taken from ChEMBL document CHEMBL1201862, “PubChem BioAssay data set” (2004).

Among the test systems are 786-0; HCT-116; HCT-15; Hs-578T; IGROV-1; M14; MCF7; NCI/ADR-RES; OVCAR-8; PC-3; RXF 393; SF-295; SF-539; SNB-19; SNB-75; T47D; U-251; UACC-257; UACC-62.
Common to all, as to test: growth of human tumour cells (NCI), 48 h

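Protocol summary: plate cells (96-well), add compound at 5 concentrations, incubate 48 h, interpolate endpoints linearly. GI50 = concentration required for 50% inhibition of growth.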 Active and inactive are the calls of the source. No stated cut-off is given here; in the data, active = GI50 up to about 1.1 µM and inactive = higher. Some results are limits rather than exact numbers.

As for `Cc1cc(C)c2c(=O)cc(-c3ccccc3)[nH]c2c1`, the GI50 in the assay with 786-0 is 2.07 µM (inactive); with HCT-116 it was 0.889 µM (active); with HCT-15 it was 0.828 µM; with Hs-578T, 4.59 µM (inactive); with IGROV-1, 2.86 µM (inactive); in the assay on M14 it was 3.37 µM (inactive). The GI50 is 3.01 µM (inactive) in the assay on MCF7; 1.61 µM (inactive) in the assay with NCI/ADR-RES; 3.66 µM (inactive) with OVCAR-8; 2.06 µM (inactive) in the assay on PC-3; 1.61 µM (inactive) with RXF 393; 3.63 µM (inactive) in the assay on SF-295. Also, the GI50 in the assay on SF-539 is 2.31 µM (inactive); in the assay on SNB-19, 5.43 µM (inactive); in the assay on SNB-75, 3.16 µM (inactive); in the assay on T47D, 12.5 µM (inactive); with U-251 it was 3.25 µM (inactive); in the assay on UACC-257, 21.7 µM (inactive). Moreover, in the assay with UACC-62, the GI50 is 1.6 µM (inactive).

On to `CC[C@@]1(O)C(=O)OCc2c1cc1n(c2=O)Cc2c-1nc1ccccc1c2/C=N\NC(=O)C(N)CC(C)C` (stereo partly specified), for which the GI50 in the assay on 786-0 was < 0.01 µM (active); in the assay with HCT-116 it was 0.0161 µM (active); with HCT-15 it was 0.24 µM; in the assay with Hs-578T, 11.3 µM (inactive); with IGROV-1, 0.233 µM (active); in the assay on M14, < 0.0128 µM (active). For the same molecule, the GI50 with MCF7 was < 0.01 µM (active); with NCI/ADR-RES, 0.0215 µM (active); in the assay with OVCAR-8, < 0.0132 µM (active); in the assay with PC-3, < 0.0188 µM (active); with RXF 393, < 0.0143 µM (active); in the assay with SF-295 it was < 0.01 µM (active). Moreover, the GI50 is < 0.01 µM (active) in the assay with SF-539; < 0.01 µM (active) in the assay on SNB-19; < 0.01 µM (active) in the assay on SNB-75; < 0.01 µM (active) with T47D; < 0.01 µM (active) in the assay on U-251; 0.0536 µM (active) in the assay on UACC-257. Moreover, the GI50 in the assay with UACC-62 is < 0.01 µM (active).

Take `O=C1c2ccccc2C(=O)c2c1ccc(C1C(=O)c3ccccc3C1=O)c2-c1c(C2C(=O)c3ccccc3C2=O)ccc2c1C(=O)c1ccccc1C2=O`: the GI50 was > 100 µM (inactive) in the assay with 786-0; > 100 µM (inactive) in the assay on HCT-116; greater than 100 µM in the assay with HCT-15; > 100 µM (inactive) in the assay on Hs-578T; > 100 µM (inactive) in the assay with IGROV-1; > 100 µM (inactive) with M14. The GI50 in the assay with MCF7, in the assay on NCI/ADR-RES, in the assay with OVCAR-8, with PC-3, in the assay with RXF 393 and with SF-295 was > 100 µM (inactive) throughout. Further, the GI50 in the assay with SF-539, in the assay with SNB-19, in the assay with SNB-75, in the assay on T47D, with U-251 and in the assay with UACC-257 was > 100 µM (inactive) each time. Besides, in the assay with UACC-62, the GI50 is > 100 µM (inactive).

Turning to `O=S(=O)(O)c1ccc(/N=N/c2c(O)ccc3ccccc23)cc1`, the GI50 with 786-0 is > 100 µM (inactive); with HCT-116 it was > 100 µM (inactive); in the assay with HCT-15 it was greater than 100 µM; in the assay with Hs-578T, > 100 µM (inactive); with IGROV-1 it was > 100 µM (inactive); in the assay on M14 it was > 100 µM (inactive). Besides, the GI50 in the assay on MCF7, with NCI/ADR-RES, in the assay with OVCAR-8, in the assay with PC-3, in the assay on RXF 393 and in the assay on SF-295 was > 100 µM (inactive) in each case. In addition, the GI50 with SF-539, with SNB-19, in the assay with SNB-75, in the assay on T47D, in the assay on U-251 and in the assay on UACC-257 was > 100 µM (inactive) each time. The GI50 in the assay on UACC-62 was > 100 µM (inactive).
